Test results reported in ChEMBL document CHEMBL1135345, “Design and characterization of non-phosphopeptide inhibitors for Src family SH2 domains” (Bioorg Med Chem Lett, 2002).
Where a SMILES comes first, the peptide text is derived from it. [ ]: non-standard residue; d: D form. The star is where a group is joined. pY = N[C@@H](Cc1ccc(OP(=O)(O)O)cc1)C(=O)O; Dopa = N[C@@H](Cc1ccc(O)c(O)c1)C(=O)O; Caffeoyl = O=C(/C=C/c1ccc(O)c(O)c1)*; X1 = O=C(Cc1cc(=O)oc2cc(O)ccc12)*

What was measured:
[1] = target: Tyrosine-protein kinase Lck (Homo sapiens, UniProt P06239); test: Affinity for GST-Lck-SH2 domain in ELISA
Chain of Tyrosine-protein kinase Lck (P06239 whole entry, the tested form may be a part): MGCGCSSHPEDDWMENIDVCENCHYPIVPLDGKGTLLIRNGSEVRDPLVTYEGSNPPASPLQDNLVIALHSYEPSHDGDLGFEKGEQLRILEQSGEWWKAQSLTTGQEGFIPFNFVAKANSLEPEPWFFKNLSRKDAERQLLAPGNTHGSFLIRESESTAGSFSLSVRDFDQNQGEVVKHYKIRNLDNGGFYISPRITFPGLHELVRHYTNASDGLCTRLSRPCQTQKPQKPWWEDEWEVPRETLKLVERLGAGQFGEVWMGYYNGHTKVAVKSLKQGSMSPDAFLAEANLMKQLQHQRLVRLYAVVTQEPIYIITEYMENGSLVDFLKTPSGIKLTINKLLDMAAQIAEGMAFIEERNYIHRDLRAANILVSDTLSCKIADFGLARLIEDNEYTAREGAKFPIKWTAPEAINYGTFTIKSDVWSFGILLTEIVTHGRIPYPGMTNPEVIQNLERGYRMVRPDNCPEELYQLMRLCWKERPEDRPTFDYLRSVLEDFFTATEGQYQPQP

[2] = target: Proto-oncogene tyrosine-protein kinase Src (Homo sapiens, UniProt P12931); test: Affinity for GST- Src-SH2 domain in ELISA
Chain of Proto-oncogene tyrosine-protein kinase Src (P12931 2-536 limits assumed): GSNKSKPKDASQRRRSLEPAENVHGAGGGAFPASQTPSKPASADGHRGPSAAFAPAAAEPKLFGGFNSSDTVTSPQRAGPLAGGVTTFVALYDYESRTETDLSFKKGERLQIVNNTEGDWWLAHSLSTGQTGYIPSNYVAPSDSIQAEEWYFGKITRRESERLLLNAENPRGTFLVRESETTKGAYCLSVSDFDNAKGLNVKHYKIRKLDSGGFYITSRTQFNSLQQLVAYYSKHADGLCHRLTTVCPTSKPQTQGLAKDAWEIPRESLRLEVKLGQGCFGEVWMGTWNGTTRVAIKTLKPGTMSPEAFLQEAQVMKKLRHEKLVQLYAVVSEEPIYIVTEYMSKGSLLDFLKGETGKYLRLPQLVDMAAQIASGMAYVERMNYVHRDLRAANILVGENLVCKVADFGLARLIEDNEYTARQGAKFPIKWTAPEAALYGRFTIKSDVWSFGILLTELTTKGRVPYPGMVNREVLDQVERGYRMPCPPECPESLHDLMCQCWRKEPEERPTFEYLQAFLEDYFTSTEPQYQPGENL

[3] = target: Tyrosine-protein kinase Fyn (Homo sapiens, UniProt P06241); test: Affinity for GST-Fyn-SH2 domain in ELISA
Chain of Tyrosine-protein kinase Fyn (P06241 whole entry, the tested form may be a part): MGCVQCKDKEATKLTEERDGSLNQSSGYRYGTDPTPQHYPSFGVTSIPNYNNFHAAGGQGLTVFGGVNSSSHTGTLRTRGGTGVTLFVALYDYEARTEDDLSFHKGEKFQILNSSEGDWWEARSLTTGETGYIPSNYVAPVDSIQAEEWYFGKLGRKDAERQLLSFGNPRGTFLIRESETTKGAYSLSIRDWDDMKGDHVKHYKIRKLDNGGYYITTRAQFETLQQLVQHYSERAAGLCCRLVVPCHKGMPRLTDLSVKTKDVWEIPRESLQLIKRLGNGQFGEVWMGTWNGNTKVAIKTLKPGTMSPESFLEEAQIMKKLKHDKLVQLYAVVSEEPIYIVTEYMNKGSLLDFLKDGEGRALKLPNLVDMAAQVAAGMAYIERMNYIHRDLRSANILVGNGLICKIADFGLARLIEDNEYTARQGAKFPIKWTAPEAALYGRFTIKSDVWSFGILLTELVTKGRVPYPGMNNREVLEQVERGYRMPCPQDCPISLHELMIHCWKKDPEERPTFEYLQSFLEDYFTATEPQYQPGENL

| Compound | IC50 [1] [µM] | IC50 [2] [µM] | IC50 [3] [µM] |
| --- | --- | --- | --- |
| CC(=O)N[C@@H](Cc1ccc(O)c(O)c1)C(=O)N[C@@H](CCC(=O)O)C(=O)N[C@@H](CCC(=O)O)C(=O)N[C@@H](CCC(=O)O)C(=O)O (Ac-[Dopa]EEE-OH) | 120 | 160 | > 200 |
| CC[C@H](C)[C@H](NC(=O)[C@H](CCC(=O)O)NC(=O)[C@H](CCC(=O)O)NC(=O)[C@H](Cc1ccc(O)cc1)NC(=O)/C=C/c1ccc(O)c(O)c1)C(=O)N[C@@H](CCC(=O)O)C(=O)O (Caffeoyl-YEEIE-OH) | 27 | 54 | 45 |
| CC[C@H](C)[C@H](NC(=O)[C@H](CCC(=O)O)NC(=O)[C@H](CCC(=O)O)NC(=O)[C@H](Cc1ccc(O)c(O)c1)NC(=O)/C=C/c1ccc(O)c(O)c1)C(=O)N[C@@H](CCC(=O)O)C(=O)O (Caffeoyl-[Dopa]EEIE-OH) | 18 | 55 | 33 |
| CC[C@H](C)[C@H](NC(=O)[C@H](CCC(=O)O)NC(=O)[C@H](CCC(=O)O)NC(=O)[C@H](Cc1ccc(OP(=O)(O)O)cc1)NC(=O)/C=C/c1ccc(O)c(O)c1)C(=O)N[C@@H](CCC(=O)O)C(=O)O (Caffeoyl-[pY]EEIE-OH) | 0.042 | 0.064 | 0.084 |
| CC[C@H](C)[C@H](NC(=O)[C@H](CCC(=O)O)NC(=O)[C@H](CCC(=O)O)NC(=O)[C@H](Cc1ccc(O)c(O)c1)NC(=O)Cc1cc(=O)oc2cc(O)ccc12)C(=O)N[C@@H](CCC(=O)O)C(=O)O (X1-[Dopa]EEIE-OH) | 58 | 65 | 77 |
| Ac-YEEIE-OH | > 200 | > 200 | > 200 |

More lines, in order of falling IC50 [1], values ahead:

| IC50 [1] [µM] | IC50 [2] [µM] | IC50 [3] [µM] | Compound |
| --- | --- | --- | --- |
| 3.8 | 7 | 11 | Ac-YAEIE-OH |
| 1.3 |  | 1.1 | CC[C@H](C)[C@H](NC(=O)[C@H](CCC(=O)O)NC(=O)[C@H](CCC(=O)O)NC(=O)[C@H](Cc1ccc(OP(=O)(O)O)cc1)NC(C)=O)C(=O)N[C@@H](CCC(=O)O)C(=O)O (Ac-[pY]EEIE-OH) |
| 0.081 | 0.09 | 0.1 | CC[C@H](C)[C@H](NC(=O)[C@H](CCC(=O)O)NC(=O)[C@H](CCC(=O)O)NC(=O)[C@H](Cc1ccc(OP(=O)(O)O)cc1)NC(=O)Cc1cc(=O)oc2cc(O)ccc12)C(=O)N[C@@H](CCC(=O)O)C(=O)O (X1-[pY]EEIE-OH) |
